Measurements from ChEMBL document CHEMBL1124834, “5-HT1 and 5-HT2 binding profiles of the serotonergic agents alpha-methylserotonin and 2-methylserotonin” (J Med Chem, 1990).

Key:
[1] = biological target: 5-hydroxytryptamine receptor 1E (Homo sapiens, UniProt P28566)
[2] = biological target: T1, 5-hydroxytryptamine receptor 2C (Rattus norvegicus, UniProt P08909)
T1 sequence (P08909 whole entry): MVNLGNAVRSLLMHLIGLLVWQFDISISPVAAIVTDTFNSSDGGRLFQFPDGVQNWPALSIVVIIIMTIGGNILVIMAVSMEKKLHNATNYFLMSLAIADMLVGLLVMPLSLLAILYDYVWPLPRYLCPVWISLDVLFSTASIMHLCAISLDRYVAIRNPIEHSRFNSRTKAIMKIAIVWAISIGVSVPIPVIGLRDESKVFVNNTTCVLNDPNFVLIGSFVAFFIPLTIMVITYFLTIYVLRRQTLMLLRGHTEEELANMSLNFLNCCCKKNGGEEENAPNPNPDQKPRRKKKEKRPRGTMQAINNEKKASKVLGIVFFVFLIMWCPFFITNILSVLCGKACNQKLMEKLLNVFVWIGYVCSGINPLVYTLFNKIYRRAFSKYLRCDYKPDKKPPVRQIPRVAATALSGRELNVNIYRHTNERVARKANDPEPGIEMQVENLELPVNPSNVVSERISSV

[3] = biological target: Serotonin 2 (5-HT2) receptor (Rattus norvegicus, UniProt P30994+P08909+P14842)
[4] = biological target: T2, 5-hydroxytryptamine receptor 1A (Rattus norvegicus, UniProt P19327)
T2 sequence (P19327 whole entry): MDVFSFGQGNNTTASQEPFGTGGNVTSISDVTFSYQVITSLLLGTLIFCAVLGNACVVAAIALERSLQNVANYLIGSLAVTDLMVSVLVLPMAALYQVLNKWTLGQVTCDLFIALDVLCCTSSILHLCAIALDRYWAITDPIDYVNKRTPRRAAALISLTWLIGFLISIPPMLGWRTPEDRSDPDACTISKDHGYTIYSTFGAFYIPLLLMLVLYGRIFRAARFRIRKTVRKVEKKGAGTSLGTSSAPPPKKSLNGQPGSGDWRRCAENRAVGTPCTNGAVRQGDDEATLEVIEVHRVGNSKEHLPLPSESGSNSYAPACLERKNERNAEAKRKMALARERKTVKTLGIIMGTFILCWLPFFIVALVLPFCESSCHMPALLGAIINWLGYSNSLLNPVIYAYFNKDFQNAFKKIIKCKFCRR

[5] = biological target: 5-hydroxytryptamine receptor 1B (Rattus norvegicus, UniProt P28564)
5-hydroxytryptamine receptor 1B, sequence (P28564 whole entry): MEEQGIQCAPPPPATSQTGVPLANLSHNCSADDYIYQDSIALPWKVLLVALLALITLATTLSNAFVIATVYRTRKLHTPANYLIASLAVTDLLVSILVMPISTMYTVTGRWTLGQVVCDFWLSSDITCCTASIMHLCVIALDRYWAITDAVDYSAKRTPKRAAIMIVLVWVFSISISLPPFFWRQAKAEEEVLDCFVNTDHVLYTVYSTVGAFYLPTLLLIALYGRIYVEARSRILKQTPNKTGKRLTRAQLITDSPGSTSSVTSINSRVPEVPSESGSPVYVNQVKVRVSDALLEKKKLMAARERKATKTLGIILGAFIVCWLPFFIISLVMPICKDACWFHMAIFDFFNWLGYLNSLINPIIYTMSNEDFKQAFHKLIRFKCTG

5-hydroxytryptamine receptor 1E, sequence (P28566 whole entry): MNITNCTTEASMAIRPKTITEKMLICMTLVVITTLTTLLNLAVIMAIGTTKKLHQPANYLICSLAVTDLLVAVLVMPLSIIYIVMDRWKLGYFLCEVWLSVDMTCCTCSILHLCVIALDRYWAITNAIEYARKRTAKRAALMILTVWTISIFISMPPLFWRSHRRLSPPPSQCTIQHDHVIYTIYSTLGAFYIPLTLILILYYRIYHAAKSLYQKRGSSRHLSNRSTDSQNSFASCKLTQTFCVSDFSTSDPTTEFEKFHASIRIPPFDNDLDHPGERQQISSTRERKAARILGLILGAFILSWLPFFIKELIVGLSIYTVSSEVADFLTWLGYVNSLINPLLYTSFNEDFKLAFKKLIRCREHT

Compound	Ki [1]	Ki [2]	Ki [3]	Ki [4]	Ki [5]
Cc1[nH]c2ccc(O)cc2c1CCN	> 10000 nM	650 nM	> 10000 nM	1200 nM	520 nM
COc1ccc2[nH]c(C)c(CCN)c2c1	> 10000 nM	690 nM	> 10000 nM	1300 nM	800 nM
